Experimental data taken from patent US9738634B2, “Heterocyclic amide compound and herbicide” (SYNGENTA PARTICIPATIONS AG, priority 2013, dated 2017).

Tests used:
Assay type in all cases: in vivo
barnyard grass [1] = test: Test Example 3: weedkilling efficacy through soil treatment; F: barnyard grass; conditions: soil treatment, treatment dosage 320 g/ha
Outline: (§1)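 Crop and weed responses were judged three weeks after a uniform surface spray of the water-diluted emulsion at the given g/ha rate. Seeds sat beneath about 1.5 cm of sterilized diluvial soil, and boxes stood in a greenhouse at 25 to 30° C.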

common wind-grass = test: Test Example 3: weedkilling efficacy through soil treatment; J: common wind-grass; conditions: soil treatment, treatment dosage 320 g/ha
Outline: as §1

barnyard grass [2] = test: Test Example 2: weedkilling efficacy, growth period weed treatment in the submerged state; A: barnyard grass; conditions: treatment dosage 320 g/ha
Outline: (§2)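 Seedlings at 1-2 leaves in 4 cm-deep submerged alluvial soil received emulsion formulations on the water surface, dosed per hectare; effects were judged 3 weeks on.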

green foxtail = test: Test Example 3: weedkilling efficacy through soil treatment; E: green foxtail; conditions: soil treatment, treatment dosage 320 g/ha
Outline: as §1

oval-leafed pondweed [3] = test: Test Example 2: weedkilling efficacy, growth period weed treatment in the submerged state; C: oval-leafed pondweed; conditions: treatment dosage 320 g/ha
Outline: as §2

corn = test: Test Example 3: soil treatment, effect on crop; c: corn; conditions: soil treatment, treatment dosage 320 g/ha
Outline: as §1

bulrush [4] = test: Test Example 1: weedkilling efficacy, preemergent weed treatment in the submerged state; B: bulrush; conditions: treatment dosage 320 g/ha
Outline: (§3)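 Submerged pre-emergence treatment, water-surface application of compound emulsion at g/ha dosages; 4 cm flooded alluvial soil, weeds sown and 2.5-leaf rice transplanted same day. Rated after 3 weeks, greenhouse.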

bulrush [5] = test: Test Example 2: weedkilling efficacy, growth period weed treatment in the submerged state; B: bulrush; conditions: treatment dosage 320 g/ha
Outline: as §2

redroot pigweed = test: Test Example 3: weedkilling efficacy through soil treatment; L: redroot pigweed; conditions: soil treatment, treatment dosage 320 g/ha
Outline: as §1

soybean = test: Test Example 3: soil treatment, effect on crop; d: soybean; conditions: soil treatment, treatment dosage 320 g/ha
Outline: as §1

wheat = test: Test Example 3: soil treatment, effect on crop; e: wheat; conditions: soil treatment, treatment dosage 320 g/ha
Outline: as §1

barnyard grass [6] = test: Test Example 1: weedkilling efficacy, preemergent weed treatment in the submerged state; A: barnyard grass; conditions: treatment dosage 320 g/ha
Outline: as §3

wild oat = test: Test Example 3: weedkilling efficacy through soil treatment; G: wild oat; conditions: soil treatment, treatment dosage 320 g/ha
Outline: as §1

directly sown rice = test: Test Example 3: soil treatment, effect on crop; b: directly sown rice; conditions: soil treatment, treatment dosage 320 g/ha
Outline: as §1

Indian mallow = test: Test Example 3: weedkilling efficacy through soil treatment; K: Indian mallow; conditions: soil treatment, treatment dosage 320 g/ha
Outline: as §1

rapeseed = test: Test Example 3: soil treatment, effect on crop; g: rapeseed; conditions: soil treatment, treatment dosage 320 g/ha
Outline: as §1

chickweed = test: Test Example 3: weedkilling efficacy through soil treatment; N: chickweed; conditions: soil treatment, treatment dosage 320 g/ha
Outline: as §1

oval-leafed pondweed [7] = test: Test Example 1: weedkilling efficacy, preemergent weed treatment in the submerged state; C: oval-leafed pondweed; conditions: treatment dosage 320 g/ha
Outline: as §3

crabgrass = test: Test Example 3: weedkilling efficacy through soil treatment; D: crabgrass; conditions: soil treatment, treatment dosage 320 g/ha
Outline: as §1

Italian ryegrass = test: Test Example 3: weedkilling efficacy through soil treatment; I: Italian ryegrass; conditions: soil treatment, treatment dosage 320 g/ha
Outline: as §1

catchweed = test: Test Example 3: weedkilling efficacy through soil treatment; O: catchweed; conditions: soil treatment, treatment dosage 320 g/ha
Outline: as §1

birds-eye speedwell = test: Test Example 3: weedkilling efficacy through soil treatment; p: birds-eye speedwell; conditions: soil treatment, treatment dosage 320 g/ha
Outline: as §1

fig-leafed goosefoot = test: Test Example 3: weedkilling efficacy through soil treatment; M: fig-leafed goosefoot; conditions: soil treatment, treatment dosage 320 g/ha
Outline: as §1

black-grass = test: Test Example 3: weedkilling efficacy through soil treatment; H: black-grass; conditions: soil treatment, treatment dosage 320 g/ha
Outline: as §1

beet = test: Test Example 3: soil treatment, effect on crop; f: beet; conditions: soil treatment, treatment dosage 320 g/ha
Outline: as §1

transplanted rice = test: Test Example 1: preemergent weed treatment in the submerged state, effect on crop; a: transplanted rice; conditions: treatment dosage 320 g/ha
Outline: as §3

Structure (SMILES) | F: barnyard grass, weedkilling efficacy grade (barnyard grass [1]) | J: common wind-grass, weedkilling efficacy grade (common wind-grass) | A (barnyard grass) weedkilling efficacy grade (barnyard grass [2]) | E: green foxtail, weedkilling efficacy grade (green foxtail) | C (oval-leafed pondweed) weedkilling efficacy grade (oval-leafed pondweed [3]) | c: corn, effect on crop grade (corn) | B: bulrush, weed kill grade (bulrush [4]) | B (bulrush) weedkilling efficacy grade (bulrush [5]) | L: redroot pigweed, weedkilling efficacy grade (redroot pigweed) | d: soybean, effect on crop grade (soybean) | e: wheat, effect on crop grade (wheat) | A: barnyard grass, weed kill grade (barnyard grass [6]) | G: wild oat, weedkilling efficacy grade (wild oat) | b: directly sown rice, effect on crop grade (directly sown rice) | K: Indian mallow, weedkilling efficacy grade (Indian mallow) | g: rapeseed, effect on crop grade (rapeseed) | N: chickweed, weedkilling efficacy grade (chickweed) | C: oval-leafed pondweed, weed kill grade (oval-leafed pondweed [7]) | D: crabgrass, weedkilling efficacy grade (crabgrass) | I: Italian ryegrass, weedkilling efficacy grade (Italian ryegrass) | also measured
Cc1nnc(NC(=O)C(C)(C)N2COCN(c3ccccc3)C2=O)s1 [A-1-13] | 3 (weed kill ratio 40% or more, less than 70%) | 5 (weed kill ratio 90% or more, (practically complete withering)) | 3 (weed kill ratio 40% or more, less than 70%) | 3 (weed kill ratio 40% or more, less than 70%) | 3 (weed kill ratio 40% or more, less than 70%) | 0 (weed kill ratio 5% or less (practically no effect)) | 5 (weed kill ratio 90% or more, (practically complete withering)) | 5 (weed kill ratio 90% or more, (practically complete withering)) | 0 (weed kill ratio 5% or less (practically no effect)) | 0 (weed kill ratio 5% or less (practically no effect)) | 1 (weed kill ratio 5% or more, less than 20%) | 5 (weed kill ratio 90% or more, (practically complete withering)) | 3 (weed kill ratio 40% or more, less than 70%) | 3 (weed kill ratio 40% or more, less than 70%) | 0 (weed kill ratio 5% or less (practically no effect)) | 4 (weed kill ratio 70% or more, less than 90%) | 3 (weed kill ratio 40% or more, less than 70%) | 5 (weed kill ratio 90% or more, (practically complete withering)) | 3 (weed kill ratio 40% or more, less than 70%) | 5 (weed kill ratio 90% or more, (practically complete withering)) | O: catchweed, weedkilling efficacy grade (catchweed): 0 (weed kill ratio 5% or less (practically no effect)); P: birds-eye speedwell, weedkilling efficacy grade (birds-eye speedwell): 4 (weed kill ratio 70% or more, less than 90%); M: fig-leafed goosefoot, weedkilling efficacy grade (fig-leafed goosefoot): 3 (weed kill ratio 40% or more, less than 70%); H: black-grass, weedkilling efficacy grade (black-grass): 5 (weed kill ratio 90% or more, (practically complete withering)); f: beet, effect on crop grade (beet): 1 (weed kill ratio 5% or more, less than 20%); a: transplanted rice, effect on crop grade (transplanted rice): 3 (weed kill ratio 40% or more, less than 70%)
CSc1nnc(NC(=O)C(C)(C)N2COCN(c3ccccc3)C2=O)s1 [A-1-15] | 0 (weed kill ratio 5% or less (practically no effect)) | 5 (weed kill ratio 90% or more, (practically complete withering)) | 3 (weed kill ratio 40% or more, less than 70%) | 0 (weed kill ratio 5% or less (practically no effect)) | 5 (weed kill ratio 90% or more, (practically complete withering)) | 0 (weed kill ratio 5% or less (practically no effect)) | 5 (weed kill ratio 90% or more, (practically complete withering)) | 5 (weed kill ratio 90% or more, (practically complete withering)) | 0 (weed kill ratio 5% or less (practically no effect)) | 0 (weed kill ratio 5% or less (practically no effect)) | 0 (weed kill ratio 5% or less (practically no effect)) | 4 (weed kill ratio 70% or more, less than 90%) | 0 (weed kill ratio 5% or less (practically no effect)) | 0 (weed kill ratio 5% or less (practically no effect)) | 0 (weed kill ratio 5% or less (practically no effect)) | 1 (weed kill ratio 5% or more, less than 20%) | 0 (weed kill ratio 5% or less (practically no effect)) | 5 (weed kill ratio 90% or more, (practically complete withering)) | 0 (weed kill ratio 5% or less (practically no effect)) | 4 (weed kill ratio 70% or more, less than 90%) | O: catchweed, weedkilling efficacy grade (catchweed): 0 (weed kill ratio 5% or less (practically no effect)); P: birds-eye speedwell, weedkilling efficacy grade (birds-eye speedwell): 3 (weed kill ratio 40% or more, less than 70%); M: fig-leafed goosefoot, weedkilling efficacy grade (fig-leafed goosefoot): 0 (weed kill ratio 5% or less (practically no effect)); H: black-grass, weedkilling efficacy grade (black-grass): 1 (weed kill ratio 5% or more, less than 20%); f: beet, effect on crop grade (beet): 0 (weed kill ratio 5% or less (practically no effect)); a: transplanted rice, effect on crop grade (transplanted rice): 0 (weed kill ratio 5% or less (practically no effect))
Cc1nsc(NC(=O)C(C)(C)N2COCN(c3ccccc3)C2=O)n1 [A-1-18] | 4 (weed kill ratio 70% or more, less than 90%) | 5 (weed kill ratio 90% or more, (practically complete withering)) | 3 (weed kill ratio 40% or more, less than 70%) | 5 (weed kill ratio 90% or more, (practically complete withering)) | 5 (weed kill ratio 90% or more, (practically complete withering)) | 0 (weed kill ratio 5% or less (practically no effect)) | 5 (weed kill ratio 90% or more, (practically complete withering)) | 5 (weed kill ratio 90% or more, (practically complete withering)) | 4 (weed kill ratio 70% or more, less than 90%) | 4 (weed kill ratio 70% or more, less than 90%) | 0 (weed kill ratio 5% or less (practically no effect)) | 5 (weed kill ratio 90% or more, (practically complete withering)) | 4 (weed kill ratio 70% or more, less than 90%) | 5 (weed kill ratio 90% or more, (practically complete withering)) | 0 (weed kill ratio 5% or less (practically no effect)) | 4 (weed kill ratio 70% or more, less than 90%) | 2 (weed kill ratio 20% or more, less than 40%) | 5 (weed kill ratio 90% or more, (practically complete withering)) | 5 (weed kill ratio 90% or more, (practically complete withering)) | 5 (weed kill ratio 90% or more, (practically complete withering)) | O: catchweed, weedkilling efficacy grade (catchweed): 0 (weed kill ratio 5% or less (practically no effect)); P: birds-eye speedwell, weedkilling efficacy grade (birds-eye speedwell): 4 (weed kill ratio 70% or more, less than 90%); M: fig-leafed goosefoot, weedkilling efficacy grade (fig-leafed goosefoot): 4 (weed kill ratio 70% or more, less than 90%); H: black-grass, weedkilling efficacy grade (black-grass): 5 (weed kill ratio 90% or more, (practically complete withering)); f: beet, effect on crop grade (beet): 1 (weed kill ratio 5% or more, less than 20%); a: transplanted rice, effect on crop grade (transplanted rice): 2 (weed kill ratio 20% or more, less than 40%)
